Experimental data published in patent US11124541B2, “Chimeric melanocortin ligands and methods of use thereof” (REGENTS OF THE UNIVERSITY OF MINNESOTA, priority 2016, dated 2021).
Values joined by “and” are separate entries in the source; they are usually repeats but may differ in a detail not shown here. Identical values can stand only once. “Also recorded” adds a separate entry of the source. Like-named read-outs stand apart in the source and are kept apart here. Non-standard residues stand in square brackets, D forms with d. Residues, ends and D or L forms follow the SMILES beside them. Dap = NC[C@H](N)C(=O)O

Experiments:
mMC3R [1] = target: T1, mMC3R (Mus musculus, UniProt P33033); assay: cAMP AlphaScreen agonist assay, HEK293 cells stably expressing mouse MC3R; details: for agonist activity/efficacy at mMC3R (in words): concentrations up to 100 μM; for EC50: read-out: mMC3R EC50, agonist, cAMP
T1 sequence (P33033 whole entry): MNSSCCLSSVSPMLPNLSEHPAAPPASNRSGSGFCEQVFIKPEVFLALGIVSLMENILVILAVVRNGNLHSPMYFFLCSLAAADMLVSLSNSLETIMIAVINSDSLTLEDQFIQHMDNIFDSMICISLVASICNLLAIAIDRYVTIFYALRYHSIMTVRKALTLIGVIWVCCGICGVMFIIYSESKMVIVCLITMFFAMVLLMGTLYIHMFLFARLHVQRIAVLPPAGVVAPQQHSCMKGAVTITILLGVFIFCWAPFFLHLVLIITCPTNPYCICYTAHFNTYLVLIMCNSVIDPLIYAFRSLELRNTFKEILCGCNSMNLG

mMC4R [2] = target: T2, mMC4R (Mus musculus, UniProt P56450); assay: cAMP AlphaScreen agonist assay, HEK293 cells stably expressing mouse MC4R; details: for agonist activity/efficacy at mMC4R (in words): concentrations up to 100 μM; for EC50: read-out: mMC4R EC50, agonist, cAMP
T2 sequence (P56450 whole entry): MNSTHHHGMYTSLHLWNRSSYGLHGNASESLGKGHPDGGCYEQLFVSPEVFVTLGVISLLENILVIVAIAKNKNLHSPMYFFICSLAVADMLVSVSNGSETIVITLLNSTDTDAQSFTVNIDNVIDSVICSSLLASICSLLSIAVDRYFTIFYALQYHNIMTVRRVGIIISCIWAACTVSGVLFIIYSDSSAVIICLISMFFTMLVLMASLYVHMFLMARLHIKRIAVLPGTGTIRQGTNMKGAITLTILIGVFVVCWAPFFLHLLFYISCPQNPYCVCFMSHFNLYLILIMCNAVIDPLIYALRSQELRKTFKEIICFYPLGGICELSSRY

mMC1R [3] = target: T3, mMC1R (Mus musculus, UniProt Q01727); assay: cAMP AlphaScreen agonist assay, HEK293 cells stably expressing mouse MC1R; details: for agonist activity/efficacy at mMC1R (in words): concentrations up to 100 μM; for EC50: read-out: mMC1R EC50, agonist, cAMP
T3 sequence (Q01727 whole entry): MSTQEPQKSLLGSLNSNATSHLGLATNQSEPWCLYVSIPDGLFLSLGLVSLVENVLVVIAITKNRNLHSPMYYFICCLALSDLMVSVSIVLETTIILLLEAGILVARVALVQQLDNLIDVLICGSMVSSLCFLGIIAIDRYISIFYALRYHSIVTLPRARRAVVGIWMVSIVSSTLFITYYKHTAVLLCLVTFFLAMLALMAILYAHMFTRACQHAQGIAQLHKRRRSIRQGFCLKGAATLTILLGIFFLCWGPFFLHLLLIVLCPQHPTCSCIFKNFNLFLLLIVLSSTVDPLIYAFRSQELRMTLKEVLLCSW

mMC5R [4] = target: T4, mMC5R (Mus musculus, UniProt P41149); assay: cAMP AlphaScreen agonist assay, HEK293 cells stably expressing mouse MC5R; details: for EC50: read-out: mMC5R EC50, agonist, cAMP; for agonist activity/efficacy at mMC5R (in words): concentrations up to 100 μM
T4 sequence (P41149 whole entry): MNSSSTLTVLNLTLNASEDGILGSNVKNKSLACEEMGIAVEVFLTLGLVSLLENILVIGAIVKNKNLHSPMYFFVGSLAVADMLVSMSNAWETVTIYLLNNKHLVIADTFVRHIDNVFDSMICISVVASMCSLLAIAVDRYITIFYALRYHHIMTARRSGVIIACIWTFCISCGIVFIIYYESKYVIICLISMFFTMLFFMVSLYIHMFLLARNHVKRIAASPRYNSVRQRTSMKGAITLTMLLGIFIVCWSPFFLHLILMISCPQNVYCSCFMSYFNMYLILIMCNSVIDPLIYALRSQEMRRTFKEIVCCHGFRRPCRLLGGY

male mice = assay: ICV or IT administration in male mice monitored in TSE metabolic cages; type: in vivo
Source text: As described herein, compound 2 (c[Pro-His-DPhe-Arg-Trp-Dap-Ala-DPro] (SEQ ID NO:4)) has been administered in male mice. This compound has been administered via a cannula directly into the brain (ICV administration) or through an injection into the spinal cord (IT administration), at three different doses each administration route (2 nmol, 5 nmol, and 10 nmol). After compound administration, the mice were monitored in TSE metabolic cages, which record food intake, water intake, ambulatory activity (how many times a mouse breaks a light beam, which can give an indication of toxicity), respiratory-exchange ratio (RER, ratio between amount of CO2 produced in metabolism and O2 consumed, giving an indication if fat [RER value closer to 0.7] or carbohydrates [RER value closer to 1] is the energy source being utilized), and energy expenditure.

mMC1R [5] = target: T3, mMC1R; set-up: expressed in transfected cells; host or cells: HEK293; details: literature value; read-out: reported agonist potency at the mMC1R; cited from earlier work
mMC3R [6] = target: T1, mMC3R; set-up: expressed in transfected cells; host or cells: HEK293; details: literature value; read-out: reported agonist potency at the mMC3R; cited from earlier work
mMC4R [7] = target: T2, mMC4R; set-up: expressed in transfected cells; host or cells: HEK293; details: cited from earlier work; for EC50: literature value, read-out: reported agonist potency at the mMC4R
mMC5R [8] = target: T4, mMC5R; set-up: expressed in transfected cells; host or cells: HEK293; details: literature value; read-out: reported agonist potency at the mMC5R; cited from earlier work
[9] = compound versus vehicle treated animals

## C[C@@H]1NC(=O)[C@H](CN)NC(=O)[C@H](Cc2c[nH]c3ccccc23)NC(=O)[C@H](CCCNC(=N)N)NC(=O)[C@@H](Cc2ccccc2)NC(=O)[C@H](Cc2c[nH]cn2)NC(=O)[C@@H]2CCCN2C(=O)[C@H]2CCCN2C(=O)[C@H](Cc2ccccc2)NC1=O [MDE5-151-2c, c[Pro-His-DPhe-Arg-Trp-Dap-Ala-Phe-DPro]] (cyclo(PH[dF]RW[Dap]AF[dP]))
mMC3R [1]
  agonist activity/efficacy at mMC3R (in words): full agonist
  EC50: 0.26 µM
mMC4R [2]
  agonist activity/efficacy at mMC4R (in words): partial agonist
  EC50: 0.023 µM
mMC1R [3]
  agonist activity/efficacy at mMC1R (in words): full agonist
  EC50: 0.024 µM
  decreased agonist potency at mMC1R relative to MDE5-149-2c: 70 fold
mMC5R [4]
  EC50: 0.018 ± 0.002 µM

## C[C@@H]1NC(=O)[C@H](CC(N)=O)NC(=O)[C@H](Cc2c[nH]c3ccccc23)NC(=O)[C@H](CCCNC(=N)N)NC(=O)[C@@H](Cc2ccccc2)NC(=O)[C@H](Cc2c[nH]cn2)NC(=O)[C@@H]2CCCN2C(=O)[C@H]2CCCN2C1=O [MDE6-3-2c, c[Pro-His-DPhe-Arg-Trp-Asn-Ala-DPro]] (cyclo(PH[dF]RWNA[dP]))
mMC3R [1]
  EC50: 0.3 µM
mMC3R [1]; relative to MDE5-149-2c
  decreased agonist potency at mMC3R relative to MDE5-149-2c: 9 fold
mMC4R [2]
  decreased agonist potency at mMC4R relative to MDE5-149-2c: 21 fold
mMC1R [3]
  decreased agonist potency at mMC1R relative to MDE5-149-2c: 34 fold
mMC5R [4]
  decreased agonist potency at mMC5R relative to MDE5-149-2c: 5 fold

## C[C@@H]1NC(=O)[C@H](CN)NC(=O)[C@H](Cc2c[nH]c3ccccc23)NC(=O)[C@H](CCCNC(=N)N)NC(=O)[C@@H](Cc2ccccc2)NC(=O)[C@@H]2CCCN2C(=O)[C@H]2CCCN2C1=O [MDE6-5-1c, c[Pro-DPhe-Arg-Trp-Dap-Ala-DPro]] (cyclo(P[dF]RW[Dap]A[dP]))
mMC3R [1]
  agonist activity/efficacy at mMC3R (in words): partially stimulated
mMC4R [2]
  EC50: 0.15 ± 0.01 µM
mMC1R [3]
  agonist activity/efficacy at mMC1R (in words): full agonist
  EC50: 0.6 µM
mMC5R [4]
  EC50: 0.048 µM

## C[C@@H]1NC(=O)[C@H](CN)NC(=O)[C@H](Cc2c[nH]c3ccccc23)NC(=O)[C@H](CCCNC(=N)N)NC(=O)[C@@H](Cc2ccccc2)NC(=O)[C@H](Cc2c[nH]cn2)NC(=O)[C@@H]2CCCN2C(=O)[C@H]2CCCN2C1=O [MDE6-5-2c, c[Pro-His-DPhe-Arg-Trp-Dap-Ala-DPro]] (cyclo(H[dF]RW[Dap]A[dP]P))
Male mice; ICV, 10 nmol, 72 h
  cumulative food intake following ICV administration, 10 nmol: decreased food intake through 72 h
Male mice; ICV, 10 nmol, first 24 h, versus lower doses
  Respiratory Exchange Ratio (RER) effect, ICV 10 nmol: more robust
Male mice; ICV, 2, 5, 10 nmol, first 24 h, dose response
  cumulative food intake following ICV administration: further decreased food intake
Male mice; ICV, 2 and 5 nmol, first 24 h
  Respiratory Exchange Ratio (RER), ICV 2 and 5 nmol: decreased RER compared to vehicle control
Male mice; IT
  Respiratory Exchange Ratio (RER) effect, IT administration: more modest effect
Male mice; IT, 2, 5, 10 nmol, not dose-responsive
  cumulative food intake following IT administration: decreased food intake was observed
Male mice; [9]
  energy expenditure: not different
  water intake: not different
Male mice; single dose, all cases
  duration of effects on RER following a single dose: 24 h

## C[C@@H]1NC(=O)[C@H](CN)NC(=O)[C@H](Cc2c[nH]c3ccccc23)NC(=O)[C@H](CCCNC(=N)N)NC(=O)[C@@H](Cc2ccccc2)NC(=O)[C@H](Cc2cnc[nH]2)NC(=O)[C@@H]2CCCN2C(=O)[C@H]2CCCN2C1=O [MDE6-5-2c, c[Pro-His-DPhe-Arg-Trp-Dap-Ala-DPro]] (cyclo(H[dF]RW[Dap]A[dP]P))
mMC3R [1]
  EC50: 0.04 µM
Male mice; [9]
  ambulatory activity: not different
mMC4R [2]; agonist potency
  selectivity for the mMC4R over the mMC3R: 25 fold
mMC4R [2]
  EC50: 0.0016 µM
mMC1R [3]
  EC50: 0.0011 µM
mMC5R [4]
  EC50: 0.0003 µM

## N=C(N)NCCC[C@@H]1NC(=O)[C@@H](Cc2ccccc2)NC(=O)[C@@H]2CCCN2C(=O)[C@H]2CCCN2C(=O)[C@H](CC(N)=O)NC(=O)[C@H](Cc2c[nH]c3ccccc23)NC1=O [MDE6-10-1c, c[Pro-DPhe-Arg-Trp-Asn-DPro]] (cyclo(P[dF]RWN[dP]))
mMC3R [1]
  agonist activity/efficacy at mMC3R (in words): no agonist activity; also recorded: did not possess agonist activity
mMC4R [2]; decrease relative to MDE5-149-1c
  decreased potency at mMC4R relative to MDE5-149-1c: 8 fold
mMC4R [2]
  EC50: 1.1 µM
mMC1R [3]; agonist potency
  selectivity for the mMC1R over the mMC3R: > 2500 fold
  selectivity for the mMC1R over the mMC5R: > 1000 fold
mMC1R [3]; increase over MDE5-149-1c
  increased agonist potency at mMC1R over MDE5-149-1c: 10 fold
mMC1R [3]
  EC50: 0.04 µM
mMC5R [4]
  agonist activity/efficacy at mMC5R (in words): partially stimulated

## N=C(N)NCCC[C@@H]1NC(=O)[C@@H](Cc2ccccc2)NC(=O)[C@H](Cc2c[nH]cn2)NC(=O)[C@@H]2CCCN2C(=O)[C@H]2CCCN2C(=O)[C@H](CC(N)=O)NC(=O)[C@H](Cc2c[nH]c3ccccc23)NC1=O [MDE6-10-2c, c[Pro-His-DPhe-Arg-Trp-Asn-DPro]] (cyclo(PH[dF]RWN[dP]))
mMC3R [1]
  EC50: 0.51 µM
mMC4R [2]
  decreased agonist potency at mMC4R relative to MDE5-149-2c: 121 fold
mMC1R [3]
  decreased agonist potency at mMC1R relative to MDE5-149-2c: 143 fold
mMC5R [4]
  decreased agonist potency at mMC5R relative to MDE5-149-2c: 37 fold

## N=C(N)NCCC[C@@H]1NC(=O)[C@@H](Cc2ccccc2)NC(=O)[C@@H]2CCCN2C(=O)[C@H]2CCCN2C(=O)[C@H](CN)NC(=O)[C@H](Cc2c[nH]c3ccccc23)NC1=O [MDE6-12-1c, c[Pro-DPhe-Arg-Trp-Dap-DPro]] (cyclo(P[dF]RW[Dap][dP]))
mMC3R [1]
  agonist activity/efficacy at mMC3R (in words): no observable activity; also recorded: did not possess agonist activity; also recorded: no agonist activity
mMC4R [2]; 100 μM, no EC50 determinable, relative to NDP-MSH
  mMC4R percent maximal stimulatory response at 100 μM: 35%
mMC4R [2]
  agonist activity/efficacy at mMC4R (in words): stimulated a fraction of the maximal NDP-MSH response; also recorded: partially stimulated
mMC1R [3]; PA, relative to maximal NDP-MSH response
  mMC1R partial agonist, percent maximal NDP stimulation: PA, 75%
mMC1R [3]; over mMC3R, mMC4R, mMC5R
  selectivity for the mMC1R over the other receptors: > 500 fold
mMC1R [3]
  EC50: 0.11 µM
mMC5R [4]
  agonist activity/efficacy at mMC5R (in words): no observable activity; also recorded: unable to stimulate; also recorded: no agonist activity

## N=C(N)NCCC[C@@H]1NC(=O)[C@@H](Cc2ccccc2)NC(=O)[C@H](Cc2c[nH]cn2)NC(=O)[C@@H]2CCCN2C(=O)[C@H]2CCCN2C(=O)[C@H](CN)NC(=O)[C@H](Cc2c[nH]c3ccccc23)NC1=O [MDE6-12-2c, c[Pro-His-DPhe-Arg-Trp-Dap-DPro]] (cyclo(PH[dF]RW[Dap][dP]))
mMC3R [1]
  agonist activity/efficacy at mMC3R (in words): partially stimulated
mMC4R [2]; relative to MDE6-5-2c
  decreased agonist potency at mMC4R relative to MDE6-5-2c: 593 fold
mMC1R [3]; relative to MDE6-5-2c
  decreased agonist potency at mMC1R relative to MDE6-5-2c: 418 fold
mMC5R [4]; relative to MDE6-5-2c
  decreased agonist potency at mMC5R relative to MDE6-5-2c: 1,100 fold

## Ac-mini-(His-DPhe-Arg-Trp)hAGRP-NH2
mMC1R [5]
  EC50: 0.00016 µM
mMC3R [6]
  EC50: 0.03 µM
mMC4R [7]
  EC50: 0.0014 µM
mMC5R [8]
  EC50: 0.0006 µM and 0.00056 µM

## Tyr-c[Asp-His-DPhe-Arg-Trp-Asn-Ala-Phe-Dap]-Tyr-NH2 (FRWNAF; Tyr-Asp-His, Dap lactam, Tyr-NH2; printed: Phe-Arg-Trp-Asn-Ala-Phe-) [previously reported lactam bridged AGRP/NDP-MSH chimeric ligand]
mMC1R [5]
  EC50: 0.0002 µM
mMC3R [6]
  EC50: 0.001 µM
mMC4R [7]; literature chimeric ligands
  reported selectivity for the mMC4R over the mMC3R: 5 fold
mMC4R [7]
  EC50: 0.0002 µM
mMC5R [8]
  EC50: 0.0005 µM
